The results in this text go back to patent US8703768B2, “Nitrogen containing heteroaryl compounds” (Hoffmann-La Roche Inc., priority 2010, dated 2014).

The target in this test is human PDE10A (Homo sapiens (Human), UniProt Q9Y233). As to the kind of experiment: human PDE10A full length Scintillation Proximity Assay (SPA). It is filed as biochemical. The settings on record: 50 nM cGMP and 50 nM [3H]-cGMP, 20 minutes at room temperature; read-out: PDE10A inhibition IC50. In a few lines:
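Full-length enzyme incubated with compounds; reaction started with cGMP plus [^3H]-cGMP substrate and run 20 min at room temperature. Stopped with yttrium silicate SPA beads in 18 mM zinc sulphate, 1 h shaking, then scintillation counting; background from enzyme-free wells.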
On the technique in general: SPA uses beads or plates that emit light when radiolabelled molecules are held near them.

For orientation: IC50 means the point on the concentration scale where inhibition reaches its midpoint.

Sequence of human PDE10A (Q9Y233 other isoform, or with tags, fused parts or gaps): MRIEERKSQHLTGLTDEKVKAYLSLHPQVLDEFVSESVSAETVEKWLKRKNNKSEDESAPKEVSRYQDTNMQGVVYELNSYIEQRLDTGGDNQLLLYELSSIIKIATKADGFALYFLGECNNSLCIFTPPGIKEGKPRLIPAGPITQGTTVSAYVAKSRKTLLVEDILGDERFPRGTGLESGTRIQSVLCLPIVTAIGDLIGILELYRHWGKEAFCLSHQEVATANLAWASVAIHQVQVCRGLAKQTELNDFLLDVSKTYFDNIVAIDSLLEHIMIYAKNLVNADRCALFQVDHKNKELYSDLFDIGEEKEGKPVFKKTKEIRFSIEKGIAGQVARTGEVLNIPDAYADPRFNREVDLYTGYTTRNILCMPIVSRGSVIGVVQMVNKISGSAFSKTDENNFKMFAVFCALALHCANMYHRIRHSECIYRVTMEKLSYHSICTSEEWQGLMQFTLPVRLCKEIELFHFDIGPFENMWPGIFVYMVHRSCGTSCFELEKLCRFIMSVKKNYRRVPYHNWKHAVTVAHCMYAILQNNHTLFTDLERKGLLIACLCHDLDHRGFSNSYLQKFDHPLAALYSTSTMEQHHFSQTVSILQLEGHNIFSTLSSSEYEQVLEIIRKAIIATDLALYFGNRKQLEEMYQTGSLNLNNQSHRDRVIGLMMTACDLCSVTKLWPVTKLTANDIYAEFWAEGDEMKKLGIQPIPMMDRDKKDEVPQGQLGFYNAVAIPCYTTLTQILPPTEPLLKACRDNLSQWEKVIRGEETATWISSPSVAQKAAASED

On to `O=C(NC1CCC1)c1ccncc1NC(=O)c1nc(C2CC2)ccc1Nc1cncnc1` [Example 58, 6-Cyclopropyl-3-(pyrimidin-5-ylamino)-pyridine-2-carboxylic acid (4-cyclobutylcarbamoyl-pyridin-3-yl)-amide], for which the concentration for half-maximal inhibition (IC50) turned out to be 1.1 nM.

Turning to `Cn1ncc(NC(=O)c2nc(C3CC3)cnc2Nc2cncnc2)c1C(=O)NCC(C)(C)O` [Example 119, 6-Cyclopropyl-3-(pyrimidin-5-ylamino)-pyrazine-2-carboxylic acid [5-(2-hydroxy-2-methyl-propylcarbamoyl)-1-methyl-1H-pyrazol-4-yl]-amide], the IC50 worked out at 4.5 nM.

Turning to `CNC(=O)c1c(NC(=O)c2nc(C(C)O)cnc2Nc2cncnc2)cnn1C` (stereo not drawn) [Example 187, 6-(1-Hydroxy-ethyl)-3-(pyrimidin-5-ylamino)-pyrazine-2-carboxylic acid (1-methyl-5-methylcarbamoyl-1H-pyrazol-4-yl)-amide], the 50% inhibitory concentration (IC50) stood at 63.8 nM.

`CC(C)Cc1ncc(Nc2cncnc2)c(C(=O)Nc2cccnc2C(=O)NCC(C)(C)O)n1` [Example 331, 2-Isobutyl-5-(pyrimidin-5-ylamino)-pyrimidine-4-carboxylic acid [2-(2-hydroxy-2-methyl-propylcarbamoyl)-pyridin-3-yl]-amide]: the IC50 was determined as 3.1 nM.

On to `Cn1cc(NC(=O)c2nc(C3CC3)cnc2Nc2cncnc2)c(C(=O)NCC2CCCO2)n1` (stereo not drawn) [Example 109, 6-Cyclopropyl-N-(1-methyl-3-((tetrahydrofuran-2-yl)methylcarbamoyl)-1H-pyrazol-4-yl)-3-(pyrimidin-5-ylamino)pyrazine-2-carboxamide], for which the IC50 is 18.9 nM.

Take `Cn1ncc(NC(=O)c2nc(C3CC3)cnc2Nc2cncnc2)c1C(=O)N1CCCC1` [Example 156, 6-Cyclopropyl-3-(pyrimidin-5-ylamino)-pyrazine-2-carboxylic acid [1-methyl-5-(pyrrolidine-1-carbonyl)-1H-pyrazol-4-yl]-amide]: the IC50 turned out to be 11.2 nM.

For `CC(C)(O)CNC(=O)c1nc(C2CCCO2)ccc1NC(=O)c1nc(C2CC2)cnc1Nc1cncnc1` (stereo not drawn) [Example 178, 6-Cyclopropyl-3-(pyrimidin-5-ylamino)-pyrazine-2-carboxylic acid [2-(2-hydroxy-2-methyl-propylcarbamoyl)-6-(tetrahydro-furan-2-yl)-pyridin-3-yl]-amide], the IC50 worked out at 0.1 nM.

Consider `CNC(=O)c1nc(-c2ccccc2)sc1NC(=O)c1nc(C2CC2)ccc1Nc1cncnc1` [Example 64, 6-Cyclopropyl-3-(pyrimidin-5-ylamino)-pyridine-2-carboxylic acid (4-methylcarbamoyl-2-phenyl-thiazol-5-yl)-amide], for which the IC50 is 1110 nM.

With `CNC(=O)c1nn(C)cc1NC(=O)c1nc(C2CCCCC2)ncc1Nc1cncnc1` [Example 84, 2-Cyclohexyl-5-(pyrimidin-5-ylamino)-pyrimidine-4-carboxylic acid (1-methyl-3-methylcarbamoyl-1H-pyrazol-4-yl)-amide], the IC50 was 1.9 nM.

As for `CNC(=O)c1ccc(F)cc1NC(=O)c1nc(C2CC2)cnc1Nc1cncnc1` [Example 292, 6-Cyclopropyl-3-(pyrimidin-5-ylamino)-pyrazine-2-carboxylic acid (5-fluoro-2-methylcarbamoyl-phenyl)-amide], the concentration for half-maximal inhibition (IC50) worked out at 0.7 nM.

For the compound `COCCN(C)C(=O)c1ncccc1NC(=O)c1nc(C2CC2)cnc1Nc1cncnc1` [Example 117, 6-Cyclopropyl-3-(pyrimidin-5-ylamino)-pyrazine-2-carboxylic acid {2-[(2-methoxy-ethyl)-methyl-carbamoyl]-pyridin-3-yl}-amide], the IC50 came out at 26.8 nM.

`CN1CCC(NC(=O)c2c(NC(=O)c3nc(C4CC4)cnc3Nc3cncnc3)cnn2C)CC1` [Example 242, 6-Cyclopropyl-3-(pyrimidin-5-ylamino)-pyrazine-2-carboxylic acid [1-methyl-5-(1-methyl-piperidin-4-ylcarbamoyl)-1H-pyrazol-4-yl]-amide]: the half-inhibitory concentration (IC50) came out at 69.3 nM.

On to `CC1CCCN1C(=O)c1ncccc1NC(=O)c1nc(C2CC2)cnc1Nc1cncnc1` (stereo not drawn) [Example 252, 6-Cyclopropyl-3-(pyrimidin-5-ylamino)-pyrazine-2-carboxylic acid [2-(2-methyl-pyrrolidine-1-carbonyl)-pyridin-3-yl]-amide], for which the IC50 is 5.8 nM.

In the case of `CN(CCO)C(=O)c1ncccc1NC(=O)c1nc(C2CC2)cnc1Nc1cncnc1` [Example 269, 6-Cyclopropyl-3-(pyrimidin-5-ylamino)-pyrazine-2-carboxylic acid {2-[(2-hydroxy-ethyl)-methyl-carbamoyl]-pyridin-3-yl}-amide], the concentration for half-maximal inhibition (IC50) was 12.7 nM.

With `O=C(NCCO)c1ccncc1NC(=O)c1nc(C2CC2)ccc1Nc1cncnc1` [Example 68, 6-Cyclopropyl-3-(pyrimidin-5-ylamino)-pyridine-2-carboxylic acid [4-(2-hydroxy-ethylcarbamoyl)-pyridin-3-yl]-amide], the IC50 is 3.3 nM.

Regarding `COCCn1cc(NC(=O)c2nc(C3CC3)ccc2Nc2cncnc2)c(C(=O)N(C)C)n1` [Example 4, 6-Cyclopropyl-3-(pyrimidin-5-ylamino)-pyridine-2-carboxylic acid [3-dimethylcarbamoyl-1-(2-methoxy-ethyl)-1H-pyrazol-4-yl]-amide], the IC50 came to 124 nM.

For `Cn1ncc(NC(=O)c2nc(C3CC3)cnc2Nc2cncnc2)c1C(=O)NCC1CCCO1` (stereo not drawn) [Example 232, 6-Cyclopropyl-3-(pyrimidin-5-ylamino)-pyrazine-2-carboxylic acid {1-methyl-5-[(tetrahydro-furan-2-ylmethyl)-carbamoyl]-1H-pyrazol-4-yl}-amide], the IC50 was 4 nM.

`CC1CCCCN1C(=O)c1c(NC(=O)c2nc(C3CC3)cnc2Nc2cncnc2)cnn1C` (stereo not drawn) [Example 235, 6-Cyclopropyl-3-(pyrimidin-5-ylamino)-pyrazine-2-carboxylic acid [1-methyl-5-(2-methyl-piperidine-1-carbonyl)-1H-pyrazol-4-yl]-amide]: the IC50 is 34 nM.

Regarding `CN(C)C(=O)c1c(NC(=O)c2nc(C3CC3)cnc2Nc2cncnc2)ccc(F)c1F` [Example 316, 6-Cyclopropyl-3-(pyrimidin-5-ylamino)-pyrazine-2-carboxylic acid (2-dimethylcarbamoyl-3,4-difluoro-phenyl)-amide], the IC50 is 24.1 nM.

For `CCN(CCO)C(=O)c1c(NC(=O)c2nc(C3CC3)cnc2Nc2cncnc2)cnn1C` [Example 230, 6-Cyclopropyl-3-(pyrimidin-5-ylamino)-pyrazine-2-carboxylic acid {5-[ethyl-(2-hydroxy-ethyl)-carbamoyl]-1-methyl-1H-pyrazol-4-yl}-amide], the IC50 is 118 nM.

`Cn1cc(NC(=O)c2nc(C3CC3)ccc2Nc2cncnc2)c(C(=O)N2CCNC(=O)C2)n1` [Example 47, 6-Cyclopropyl-3-(pyrimidin-5-ylamino)-pyridine-2-carboxylic acid [1-methyl-3-(3-oxo-piperazine-1-carbonyl)-1H-pyrazol-4-yl]-amide]: the IC50 turned out to be 13.2 nM.

Consider `CN1CCCC(NC(=O)c2c(NC(=O)c3nc(C4CC4)cnc3Nc3cncnc3)cnn2C)C1` (stereo not drawn) [Example 241, 6-Cyclopropyl-3-(pyrimidin-5-ylamino)-pyrazine-2-carboxylic acid [1-methyl-5-(1-methyl-piperidin-3-ylcarbamoyl)-1H-pyrazol-4-yl]-amide], for which the IC50 was found to be 28.6 nM.

Take `CNC(=O)c1c(NC(=O)c2nc(C3CC3)cnc2Nc2cncnc2)cnn1CCC(F)(F)F` [Example 173, 6-Cyclopropyl-3-(pyrimidin-5-ylamino)-pyrazine-2-carboxylic acid [5-methylcarbamoyl-1-(3,3,3-trifluoro-propyl)-1H-pyrazol-4-yl]-amide]: the IC50 was determined as 19.5 nM.

Take `Cn1ncc(NC(=O)c2nc(C3CC3)cnc2Nc2cncnc2)c1C(=O)NC1CCCC1O` (stereo not drawn) [Example 336, 6-Cyclopropyl-3-(pyrimidin-5-ylamino)-pyrazine-2-carboxylic acid [5-(2-hydroxy-cyclopentylcarbamoyl)-1-methyl-1H-pyrazol-4-yl]-amide]: the IC50 amounted to 5.3 nM.

As to `O=C(NC1CCCC1)c1ccncc1NC(=O)c1nc(C2CC2)ccc1Nc1cncnc1` [Example 61, 6-Cyclopropyl-3-(pyrimidin-5-ylamino)-pyridine-2-carboxylic acid (4-cyclopentylcarbamoyl-pyridin-3-yl)-amide], the concentration for half-maximal inhibition (IC50) is 1.3 nM.

As to `CNC(=O)c1nn(CC2CC2)cc1NC(=O)c1nc(C2CC2)ccc1Nc1cncnc1` [Example 12, 6-Cyclopropyl-3-(pyrimidin-5-ylamino)-pyridine-2-carboxylic acid (1-cyclopropylmethyl-3-methylcarbamoyl-1H-pyrazol-4-yl)-amide], the IC50 came to 495 nM.

Consider `CNC(=O)c1nn(CC(F)(F)F)cc1NC(=O)c1nc(C2CC2)ccc1Nc1cncnc1` [Example 8, 6-Cyclopropyl-3-(pyrimidin-5-ylamino)-pyridine-2-carboxylic acid [3-methylcarbamoyl-1-(2,2,2-trifluoro-ethyl)-1H-pyrazol-4-yl]-amide], for which the IC50 was found to be 140 nM.

On to `CC1CCC(C)N1C(=O)c1ccncc1NC(=O)c1nc(C2CC2)ccc1Nc1cncnc1` (stereo not drawn) [Example 59, 6-Cyclopropyl-3-(pyrimidin-5-ylamino)-pyridine-2-carboxylic acid [4-(2,5-dimethyl-pyrrolidine-1-carbonyl)-pyridin-3-yl]-amide], for which the half-inhibitory concentration (IC50) was 84.4 nM.

In the case of `CNC(=O)c1nn(C)cc1NC(=O)c1nc(C2CCOC2)cnc1Nc1cncnc1` (stereo not drawn) [Example 102, 3-(Pyrimidin-5-ylamino)-6-(tetrahydro-furan-3-yl)-pyrazine-2-carboxylic acid (1-methyl-3-methylcarbamoyl-1H-pyrazol-4-yl)-amide], the IC50 worked out at 16.3 nM.

As for `CNC(=O)c1c(NC(=O)c2nc(C3CC3)cnc2Nc2cncnc2)cnn1C` [Example 116, 6-Cyclopropyl-3-(pyrimidin-5-ylamino)-pyrazine-2-carboxylic acid (1-methyl-5-methylcarbamoyl-1H-pyrazol-4-yl)-amide], the IC50 was determined as 4.5 nM.
